The text below walks through data of the NIST ThermoML archive (doi:10.1016/j.jct.2005.04.005).

Numbers after ± are expanded uncertainties.

The nature of series [1]: mn = molality of the nth substance listed, in mol/kg. As to conditions: 101 kPa, Liquid.
The conditions of series [2]: 298.15 K; 101 kPa; Liquid.

By mass density is commonly meant the mass of a sample divided by its volume. The term speed of sound denotes the propagation velocity of pressure waves in the medium. As for `C1COCCOCCOCCOCCOCCO1` [1,4,7,10,13,16-hexaoxacyclooctadecane] + ClC(Cl)(Cl)Cl, the mass density in series [1] (298.15 K, m1 = 0.0896) is reported as 1569.55 ± 2.1 kg/m3; in series [1] (298.15 K, m1 = 0.1666) it was 1557.54 ± 2.1 kg/m3; in series [1] (298.15 K, m1 = 0.3643), 1529.41 ± 2 kg/m3; in series [1] (298.15 K, m1 = 0.5719), 1503.47 ± 1.9 kg/m3; in series [1] (298.15 K, m1 = 0.8185), 1476.37 ± 1.8 kg/m3; in series [1] (298.15 K, m1 = 1.013) it was 1457.02 ± 1.8 kg/m3. In addition, the speed of sound in series [1] (298.15 K, m1 = 0.0896) was 932.5 ± 1.7 m/s; in series [1] (298.15 K, m1 = 0.1666), 941.9 ± 1.7 m/s; in series [1] (298.15 K, m1 = 0.3643), 965.4 ± 1.8 m/s; in series [1] (298.15 K, m1 = 0.5719) it was 989.2 ± 1.8 m/s; in series [1] (298.15 K, m1 = 0.8185), 1015.6 ± 1.8 m/s; in series [1] (298.15 K, m1 = 1.013) it was 1034.2 ± 1.8 m/s.
As for `ClC(Cl)(Cl)Cl` [tetrachloromethane], in series [2], the mass density came out at 1584.35 ± 2.2 kg/m3 and the speed of sound was 921.5 ± 1.7 m/s.
`ClC(Cl)(Cl)Cl` [tetrachloromethane] + C1COCCOCCOCCOCCOCCO1: in series [1] (298.15 K, m2 = 0), the mass density was found to be 1584.35 ± 2.2 kg/m3 and the speed of sound is given as 921.5 ± 1.7 m/s.
With `O` [water] + C1COCCOCCOCCOCCOCCO1, the mass density was 997.773 ± 0.6 kg/m3 in series [1] (295.15 K, m2 = 0); 997.299 ± 0.6 kg/m3 in series [1] (297.15 K, m2 = 0); 996.786 ± 0.6 kg/m3 in series [1] (299.15 K, m2 = 0); 996.236 ± 0.61 kg/m3 in series [1] (301.15 K, m2 = 0).
